Results published in US6492364B1, “Triazolo and derivatives as chemokine inhibitors” (Toray Industries, Inc., priority 1998, dated 2002).
Counter-ions that a name gives are not always drawn.

Tests used:
CCR2 = target: T1, CCR2 (Homo sapiens, UniProt P41597); test: Inhibition of MCP-1-induced intracellular calcium increase in THP-1 cells (Fura-2); format: cell-based; details: human monocytic cell line THP-1, stimulated with MCP-1 (10 ng/ml), intracellular calcium level
T1 construct: endogenous in cells; host or cells: THP-1 (human monocytic cell line)
T1 sequence (P41597 1-360 isoform P41597-2): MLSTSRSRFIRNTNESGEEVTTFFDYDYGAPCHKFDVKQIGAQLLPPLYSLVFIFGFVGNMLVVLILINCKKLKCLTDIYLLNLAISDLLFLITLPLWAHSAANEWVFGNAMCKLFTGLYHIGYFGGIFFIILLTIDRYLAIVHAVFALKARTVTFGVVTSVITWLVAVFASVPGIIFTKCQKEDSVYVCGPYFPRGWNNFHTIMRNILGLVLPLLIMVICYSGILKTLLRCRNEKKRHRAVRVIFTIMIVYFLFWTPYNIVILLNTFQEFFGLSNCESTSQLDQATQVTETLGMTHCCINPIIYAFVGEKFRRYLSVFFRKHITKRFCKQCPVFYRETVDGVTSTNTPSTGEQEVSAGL
Protocol: (§1) The CCR receptor-inhibiting activities of the compounds represented by Formula I will now be described. Using human eosinophil or human monocytic cell line (THP-1), the CCR receptor-inhibiting activities were studied.
(§2) Human peripheral blood eosinophils or THP- l cells were suspended in RPMI-1640 culture medium containing 1% fetal calf serum (FCS) and cultured at 37° C. for 30 minutes in the presence of 5 μM of Fura-2/AM (DOJINDO LABORATORIES). The cells were washed twice with assay buffer (140 mM NaCl, 10 mM KCl, 1.8mM CaCl2, 1 mM MgCl2, 1 mM Na2HPO4, 25mM HEPES, 5 mM glucose, 1% BSA; pH7.4) at 4° C. to remove Fura-2/AM which was not taken into the cells. The cells were suspended in the assay buffer to a final cell density of 1×10^6 cells/ml and the cell suspension was stored in the dark until assay. The calcium levels in the cells were measured by using CAF100 commercially available from Nippon Koden Co. That is, 490 μl of the suspension of the cells loaded with Fura-2 was placed in a cuvette and the cuvette was set in CAF100. After the fluorescence intensities at 340 nm and 380 nm of excitation, as well as the ratio thereof, were stabilized, 10 μl of 250 μM solution of each test compound was injected. The change in the calcium level in the cells within one minute from the stimulation was measured in terms of the ratio (F340/F380) of the intensity of the excitation light at 340 nm to that of the light at 380 nm, and the intracellular calcium level induced by the stimulation was defined as the peak of the ratio. One minute after exposure of the cells to each test compound, the cells were stimulated with eotaxin (5 ng/ml), RANTES (40 ng/ml) or MCP-1 (10 ng/ml). It is thought that the responses by THP-1 cells to RANTES and MCP-1 are mediated through CCR1 and CCR2, respectively; The response of eosinophils to eotaxin is thought to be mediated through CCR3. The increase of the intracellular calcium level was compared to that of the corresponding case wherein the cells were not treated with the test compound.

CCR1 = target: T2, CCR1 (Homo sapiens, UniProt P32246); test: Inhibition of RANTES-induced intracellular calcium increase in THP-1 cells (Fura-2); format: cell-based; details: human monocytic cell line THP-1, stimulated with RANTES (40 ng/ml), intracellular calcium level
T2 construct: endogenous in cells; host or cells: THP-1 (human monocytic cell line)
T2 sequence (P32246 1-355): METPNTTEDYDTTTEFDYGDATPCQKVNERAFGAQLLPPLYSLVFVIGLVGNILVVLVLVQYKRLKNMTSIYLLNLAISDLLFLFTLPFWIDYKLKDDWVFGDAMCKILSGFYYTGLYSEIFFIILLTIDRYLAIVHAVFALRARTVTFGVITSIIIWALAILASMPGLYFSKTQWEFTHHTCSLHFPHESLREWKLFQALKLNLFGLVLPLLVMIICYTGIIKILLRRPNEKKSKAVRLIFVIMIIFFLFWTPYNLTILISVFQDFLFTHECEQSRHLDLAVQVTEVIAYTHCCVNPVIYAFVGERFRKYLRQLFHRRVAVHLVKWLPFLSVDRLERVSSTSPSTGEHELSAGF
Protocol: as §1, §2

CCR3 = target: T3, CCR3 (Homo sapiens, UniProt P51677); test: Inhibition of eotaxin-induced intracellular calcium increase in human eosinophils (Fura-2); format: cell-based; details: human peripheral blood eosinophils, stimulated with eotaxin (5 ng/ml), intracellular calcium level
T3 construct: endogenous in cells; host or cells: human peripheral blood eosinophils (primary cells)
T3 sequence (P51677 1-355): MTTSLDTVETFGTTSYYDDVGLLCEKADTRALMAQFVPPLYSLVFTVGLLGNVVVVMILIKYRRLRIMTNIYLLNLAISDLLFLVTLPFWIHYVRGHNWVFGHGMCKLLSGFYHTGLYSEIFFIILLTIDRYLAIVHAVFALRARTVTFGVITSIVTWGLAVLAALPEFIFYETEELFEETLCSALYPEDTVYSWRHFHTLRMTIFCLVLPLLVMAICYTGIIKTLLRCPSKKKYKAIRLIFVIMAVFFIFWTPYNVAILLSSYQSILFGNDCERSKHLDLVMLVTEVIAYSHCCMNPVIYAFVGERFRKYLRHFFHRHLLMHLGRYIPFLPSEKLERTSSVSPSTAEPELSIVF
Protocol: as §1, §2

Compound	melting point	IC50 (CCR2)	IC50 (CCR1)	IC50 (CCR3)
Cc1nnc2n(CCCN3CCC(C(c4ccccc4)c4ccccc4)CC3)c(=O)c3ccccc3n12 (as salt: hydrochloride) [Compound 14]	172.8 to 190.5 °C			
Cc1nnc2n(CCCN3CCN(Cc4cccc(Oc5ccccc5)c4)CC3)c(=O)c3ccccc3n12 (as salt: hydrochloride) [Compound 17, 2,4,5,7-Tetraaza-3-methyl-7-(3-(4-((3-phenoxyphenyl)methyl)piperazinyl)propyl)tricyclo[7.4.0.0<2,6>]trideca-1(13),3,5,9(10),11-pentaene-8-one]	225 to 230.5 °C			
Cc1nnc2n(CCCN3CCN(Cc4ccc(Oc5ccccc5)cc4)CC3)c(=O)c3ccccc3n12 (as salt: hydrochloride) [Compound 20, 2,4,5,7-Tetraaza-3-methyl-7-(3-(4-((4-phenoxyphenyl)methyl)piperazinyl)propyl)tricyclo[7.4.0.0<2,6>]trideca-1(13),3,5,9(10),11-pentaene-8-one]	229 to 237 °C			
Cc1nnc2n(CCCCN3CCC(C(c4ccccc4)c4ccccc4)CC3)c(=O)c3ccccc3n12 (as salt: hydrochloride) [Compound 56]	166.5 to 180 °C			
Cc1nnc2n(CCCN3CCCC(c4c[nH]c5ccccc45)C3)c(=O)c3ccccc3n12 (stereo not drawn) [Compound 5, 2,4,5,7-Tetraaza-7-(3-(3-indole-3-ylpiperidyl)propyl)-3-methyltricyclo[7.4.0.0<2,6>]trideca-1(13),3,5,9(10),11-pentaene-8-one]	207 to 212 °C (dec.)	48.1 µM	12.9 µM	
Cc1nnc2n(CCCN3CCC(c4c[nH]c5ccccc45)CC3)c(=O)c3ccccc3n12 [Compound 6, 2,4,5,7-Tetraaza-7-(3-(4-indole-3-ylpiperidyl)propyl)-3-methyltricyclo[7.4.0.0<2,6>]trideca-1(13),3,5,9(10),11-pentaene-8-one]	207 to 209 °C (dec.)			
Cc1nnc2n(CCCN3CCC(=C(c4ccccc4)c4ccccc4)CC3)c(=O)c3ccccc3n12 [Compound 7]	157 to 159 °C			
Cc1nnc2n(CCCN3CCN(Cc4ccccc4-c4ccccc4)CC3)c(=O)c3ccccc3n12 [Compound 11, 2,4,5,7-Tetraaza-3-methyl-7-(3-(4-((2-phenylphenyl)methyl)piperazinyl)propyl)tricyclo[7.4.0.0<2,6>]trideca-1(13),3,5,9(10),11-pentaene-8-one]		> 160 µM	9.1 µM	3.6 µM
Cc1nnc2n(CCCN3CCN(C4CCCCC4)CC3)c(=O)c3ccccc3n12 [Compound 12]	118 to 120 °C			
Cc1nnc2n(CCCN3CCN(C(c4ccccc4)c4ccccc4)CC3)c(=O)c3ccccc3n12 [Compound 26]	168 to 173 °C	> 160 µM	4.1 µM	0.3 µM
CCc1nnc2n(CCCN3CCN(C(c4ccccc4)c4ccccc4)CC3)c(=O)c3ccccc3n12 [Compound 27]	199 to 201 °C			
CCCc1nnc2n(CCCN3CCN(C(c4ccccc4)c4ccccc4)CC3)c(=O)c3ccccc3n12 [Compound 28]	150 to 152 °C	> 160 µM	9.3 µM	1.4 µM
COc1ccc2c(c1)c(=O)n(CCCN1CCN(C(c3ccccc3)c3ccccc3)CC1)c1nnc(C)n21 [Compound 33]	194 to 196 °C			
COc1cc2c(=O)n(CCCN3CCN(C(c4ccccc4)c4ccccc4)CC3)c3nnc(C)n3c2cc1OC [Compound 35]	184 to 186 °C			
Cc1nnc2n(CCCN3CCN(C(c4ccccc4)c4ccccc4)CC3)c(=O)c3cc(Cl)ccc3n12 [Compound 38]	116 to 118 °C	> 160 µM	16 µM	0.5 µM
Cc1nnc2n(CCCN3CCN(C(c4ccccc4)c4ccccc4)CC3)c(=O)c3cc(O)ccc3n12 [Compound 40]	225 to 228 °C			
Cc1nnc2n(CCCN3CCN(C(c4ccccc4)c4ccccc4)CC3)c(=O)c3ccc(C(F)(F)F)cc3n12 [Compound 45]	154 to 159.5 °C			
Cc1nnc2n(CCCN3CCN(C(c4ccccc4)c4ccccc4)CC3)c(=O)c3cc(N(C)C)ccc3n12 [Compound 47]	189 to 191 °C			
Cc1nnc2n(CCN3CCN(C(c4ccccc4)c4ccccc4)CC3)c(=O)c3ccccc3n12 [Compound 50]	217 to 219 °C			
Cc1nnc2n(CCCCN3CCN(C(c4ccccc4)c4ccccc4)CC3)c(=O)c3ccccc3n12 [Compound 55]	157 to 159 °C			
Cc1nnc2c(CCCN3CCC(C(c4ccccc4)c4ccccc4)CC3)nc3ccccc3n12 [Compound 74]	88 to 90 °C			
Cc1nnc2n(-c3cccc(N4CCC(C(c5ccccc5)c5ccccc5)CC4)c3)c(=O)c3ccccc3n12 [Compound 85]	277 to 279 °C			
Cc1nnc2n(CCCN3CCN(Cc4ccc(Cl)c(Cl)c4)CC3)c(=O)c3ccccc3n12 [Compound 93, 2,4,5,7-Tetraaza-7-(3-(4-(3,4-dichlorobenzyl)piperazine-1-yl)propyl)-3-methyltricyclo[7.4.0.0<2,6>]trideca-1(13),3,5,9(10),11-pentaene-8-one]	77 to 79 °C			
